pIC50: −log10 of the molar value. Like-named read-outs stand apart in the source and are kept apart here.
Columns and labels:
[1] = test system: human cytokine IL-10 in serum; assay: Serum IL-10 (MSD assay) after a single dose in OCI-LY10 tumor-bearing NSG mice; type: in vivo
Protocol: NF-κB signaling regulates the secretion of multiple cytokines, including interleukin-10 (IL-10). MALT1 inhibition results in a decrease of IL-10 transcription and translation as well as secretion. Levels of the human cytokine IL-10 were measured in the serum of OCI-LY3 or OCI-LY10 ABC-DLBCL tumor bearing mice using a Mesoscale Discovery assay (MSD). 25 μL of mouse serum was transferred to an MSD plate (V-Plex Proinflammation Panel I (human) kit) and incubated together with 25 μL diluent 2 (MSD; R51BB-3) for 2 hours at RT followed by a 2-hour incubation with IL-10 antibody solution. Plates were read on a SECTOR imager. Serum human IL-10 levels were correlated to serum compound concentration.
Serum samples were collected at 2, 12, and 24 hours post dose and tumor samples were collected 24 hours post dose. Human IL-10 was measured in serum samples using a Mesoscale assay.
Serum IL-10 levels are graphed as the mean+/−standard deviation.
For PD, when tumors reached 550-750 mm^3 animals were assigned randomly into the treatment groups and treated as presented in Table 5. Dose volumes were adjusted to individual body weights at 10 mL/kg. For both PD studies, serum was collected at 2 and 12 hours post treatment from the retro-orbital sinus. At 24 hours post treatment, animals were bled via decapitation and tumors were excised, weighed, and divided for bioanalysis and ex vivo PD analysis. Blood was centrifuged at 10,000 rpm and serum divided for bioanalysis and PD analysis.

[2] = test system: HLY-1 (Myd88/CARD11/homoz A20 mut); assay: Anti-proliferative activity, DLBCL cell line panel; type: cell-based; settings: 192 h; antiproliferation after 8 days of treatment
primary T cells = assay: Treg/Teff ratio after CD3/28 stimulation of primary T cells (flow cytometry); type: cell-based, human; settings: compound added 24 hours after CD3/28 stimulation, for 72 hours
Excerpt: The role of MALT1 in the immunologic activity of T cells was investigated by looking at the proportions of Treg and effector T cells (Teff). These cells are in a dynamic balance and their ratio correlates with the effectiveness of protective immunity. An accumulation of Tregs, resulting in a higher Treg/Teff ratio within tumor tissue, is associated with worse prognosis in cancer. Whiteside T L. What are regulatory T cells (Treg) regulating in cancer and why? Semin Cancer Biol. 2012, 22, 327-34. In vitro, activation of T cells through TCR stimulation increases the Treg/Teff ratio by increasing the Treg population, as defined by CD4^+CD25^hiFOXP3^hi.
After 24 hours of pre-stimulation, the compound was added for 72 hours. Alternatively, the compound was added together with the CD3/28 stimulus for 96 hours. Cells were stained for flow cytometric analysis (BD Facs Verse). After gating on the living singlet population, the proportions of CD8^+ Teff and CD4^+CD25^hiFOXP3^hi Treg subpopulations were analysed.

[3] = Serum concentration after 28 days of oral dosing in male OCI-LY3 tumor-bearing NSG mice; type: in vivo; settings: mouse, mean; for concentration at 1 h: 1 h post last dose; for concentration at 2 h: 2 h post last dose; for concentration at 4 h: 4 h post last dose; for concentration at 8 h: 8 h post last dose; for concentration at 12 h: 12 h post last dose; for concentration at 0.25 h: 0.25 h post last dose
Protocol: For study 3, animals were randomly assigned into treatment groups, when the OCI-LY3 mean tumor volume was 164 mm^3 (Day 32 post-tumor cell implantation). Treatment was initiated on the day of randomization (Day 32). After 28 days of treatment on Day 60, serum was collected at 2, 4, and 12 hours post last dose for the bid treated groups or 2, 4 and 24 hours post last dose for qd treated groups in cohorts of 5 mice. Blood was collected from the retro-orbital sinus and submitted for bioanalytical analysis.
Serum samples were collected at 1, 2, 4, 8, and 12 hours post dose (for twice-daily-treated animals) or 24 hours (for once-daily-treated animals).

[4] = Oral bioavailability, 5 mg/kg solution in PEG400; type: in vivo, mice, rats, dogs, and monkeys; settings: plasma, oral 5 mg/kg
Excerpt: (Data for mice, rats, and monkeys are not shown.)

[5] = 14-day oral toxicity study toxicokinetics in Sprague-Dawley rats; type: in vivo; settings: rat, plasma; for Cmax / AUC(0-t): mean; for AUC(0-t): read-out: AUC0-24 h; for Tmax: range
Protocol: Repeated-dose PK (toxicokinetics) were obtained as part of the repeated oral dose toleration toxicity studies in rats and dogs.
There was no further increase in the daily exposure parameters at 1,000 mg/kg relative to those from 200 mg/kg/day. There was no effect of gender on exposure and there was no increase in daily exposure parameters on Day 14 relative to those observed after the first dose.

[6] = female, 30 mg/kg/day, female, Day 0, 30 mg/kg/day
[7] = female, 30 mg/kg/day, female, Day 13, 30 mg/kg/day
[8] = female, 200 mg/kg/day, female, Day 0, 200 mg/kg/day
[9] = female, 200 mg/kg/day, female, Day 13, 200 mg/kg/day
[10] = female, 1000 mg/kg/day, female, Day 0, 1,000 mg/kg/day
[11] = female, 1000 mg/kg/day, female, Day 13, 1,000 mg/kg/day
[12] = male, 30 mg/kg/day, male, Day 0, 30 mg/kg/day
[13] = male, 30 mg/kg/day, male, Day 13, 30 mg/kg/day
[14] = male, 200 mg/kg/day, male, Day 0, 200 mg/kg/day
[15] = male, 200 mg/kg/day, male, Day 13, 200 mg/kg/day
[16] = male, 1000 mg/kg/day, male (4M), Day 13, 1,000 mg/kg/day
[17] = male, 1000 mg/kg/day, male, Day 0, 1,000 mg/kg/day

O=C(Nc1ccnc(C(F)(F)F)c1)c1cnn(-c2cccc3c(=O)[nH]ccc23)c1C(F)(F)F [Compound A, 1-(1-oxo-1,2-dihydroisoquinolin-5-yl)-5-(trifluoromethyl)-N-[2-(trifluoromethyl)pyridin-4-yl]-1H-pyrazole-4-carboxamide]
effect of adding precipitation inhibitor on exposure and PD ([1]; 100 mg/kg plus precipitation inhibitor PVP/VA64, 24 hours): increased exposures correlating to increased PD shutdown at 24 hours | inhibition or reduction of serum IL-10 ([1]; single oral dose 3 mg/kg, 12 hours post dose): intermediate inhibition or reduction | inhibition or reduction of serum IL-10 ([1]; single oral dose 10 mg/kg, 12 hours post dose): strong inhibition or reduction | inhibition or reduction of serum IL-10 ([1]; single oral dose 30 mg/kg, 12 hours post dose): completely inhibited or reduced serum IL-10 levels | inhibition or reduction of serum IL-10 ([1]; single oral dose 100 mg/kg, 12 hours post dose): completely inhibited or reduced serum IL-10 levels | inhibition or reduction of serum IL-10 ([1]; single oral dose, 24 hours post dose): rebounded at 24 hours post dose | pIC50 [2]: 5.06 | effect on Treg and Teff populations (primary T cells): did not influence the Treg and Ter populations | concentration at 1 h ([3]; 1 mg/kg BID PO 28 days): 550 ng/mL | concentration at 2 h ([3]; 1 mg/kg BID PO 28 days): 449 ng/mL | concentration at 4 h ([3]; 1 mg/kg BID PO 28 days): 526 ng/mL | concentration at 8 h ([3]; 1 mg/kg BID PO 28 days): 721 ng/mL | concentration at 12 h ([3]; 1 mg/kg BID PO 28 days): 307 ng/mL | concentration at 0.25 h ([3]; 3 mg/kg BID PO 28 days): 1020 ng/mL | concentration at 1 h ([3]; 3 mg/kg BID PO 28 days, N = 2): 1940 ng/mL | concentration at 2 h ([3]; 3 mg/kg BID PO 28 days): 1560 ng/mL | concentration at 4 h ([3]; 3 mg/kg BID PO 28 days): 1150 ng/mL | concentration at 8 h ([3]; 3 mg/kg BID PO 28 days, N = 2): 2680 ng/mL | concentration at 12 h ([3]; 3 mg/kg BID PO 28 days): 1020 ng/mL | concentration at 0.25 h ([3]; 10 mg/kg BID PO 28 days): 4050 ng/mL | concentration at 1 h ([3]; 10 mg/kg BID PO 28 days): 5080 ng/mL | concentration at 2 h ([3]; 10 mg/kg BID PO 28 days): 4600 ng/mL | concentration at 4 h ([3]; 10 mg/kg BID PO 28 days): 6250 ng/mL | concentration at 8 h ([3]; 10 mg/kg BID PO 28 days): 5500 ng/mL | concentration at 12 h ([3]; 10 mg/kg BID PO 28 days): 4170 ng/mL | concentration at 0.25 h ([3]; 30 mg/kg BID PO 28 days): 5970 ng/mL | concentration at 1 h ([3]; 30 mg/kg BID PO 28 days): 11400 ng/mL | concentration at 2 h ([3]; 30 mg/kg BID PO 28 days): 12300 ng/mL | concentration at 4 h ([3]; 30 mg/kg BID PO 28 days): 10400 ng/mL | concentration at 8 h ([3]; 30 mg/kg BID PO 28 days): 14700 ng/mL | concentration at 12 h ([3]; 30 mg/kg BID PO 28 days): 9000 ng/mL | concentration at 1 h ([3]; 60 mg/kg QD PO 28 days): 9270 ng/mL | concentration at 2 h ([3]; 60 mg/kg QD PO 28 days): 16000 ng/mL | concentration at 4 h ([3]; 60 mg/kg QD PO 28 days): 11400 ng/mL | concentration at 24 h ([3]; 60 mg/kg QD PO 28 days, 24 h post last dose): 2510 ng/mL | concentration at 0.25 h ([3]; 100 mg/kg BID PO 28 days): 16500 ng/mL | concentration at 1 h ([3]; 100 mg/kg BID PO 28 days): 21200 ng/mL | concentration at 2 h ([3]; 100 mg/kg BID PO 28 days): 21600 ng/mL | concentration at 4 h ([3]; 100 mg/kg BID PO 28 days): 12800 ng/mL | concentration at 8 h ([3]; 100 mg/kg BID PO 28 days): 20500 ng/mL | concentration at 12 h ([3]; 100 mg/kg BID PO 28 days): 10300 ng/mL | bioavailability ([4]; Sprague-Dawley, rat, rats): 51.2% | bioavailability ([4]; beagle, dog, dogs): 100% | bioavailability ([4]; mouse, rat, dog, monkey, all species (mice, rats, dogs, monkeys)): > 50% | Cmax [5, 6]: 27100 ng/mL | AUC(0-t) [5, 6]: 366 µg·h/mL | Tmax [5, 6]: 1 to 7 h | Cmax [5, 7]: 33400 ng/mL | AUC(0-t) [5, 7]: 451 µg·h/mL | Tmax [5, 7]: 2 to 4 h | Cmax [5, 8]: 93100 ng/mL | AUC(0-t) [5, 8]: 93.1 µg·h/mL | Cmax [5, 9]: 96100 ng/mL | AUC(0-t) [5, 9]: 1300 µg·h/mL | Tmax [5, 9]: 2 to 7 h | Cmax [5, 10]: 83200 ng/mL | AUC(0-t) [5, 10]: 1140 µg·h/mL | Tmax [5, 10]: 2 to 4 h | Cmax [5, 11]: 83200 ng/mL | AUC(0-t) [5, 11]: 83.2 µg·h/mL | Cmax ([5]; male, 30 mg/kg/day, male, Day 0 (first day of dosing), 30 mg/kg/day): 24400 ng/mL | AUC(0-t) [5, 12]: 247 µg·h/mL | Tmax [5, 12]: 2 to 4 h | Cmax [5, 13]: 26700 ng/mL | AUC(0-t) [5, 13]: 305 µg·h/mL | Tmax [5, 13]: 2 h | Cmax [5, 14]: 96700 ng/mL | AUC(0-t) [5, 14]: 1410 µg·h/mL | Tmax [5, 14]: 7 to 9 h | Cmax [5, 15]: 63900 ng/mL | AUC(0-t) [5, 15]: 803 µg·h/mL | Tmax [5, 15]: 2 to 7 h | Cmax [5, 16]: 83200 ng/mL | AUC(0-t) [5, 16]: 898 µg·h/mL | Tmax [5, 16]: 2 to 4 h | Cmax [5, 17]: 90800 ng/mL | AUC(0-t) [5, 17]: 1120 µg·h/mL | Tmax [5, 17]: 2 to 9 h

From patent publication US20240299376A1, “METHOD OF TREATING A CONDITION USING A […] EFFECTIVE DOSE OF 1-(1-OXO-1,2-DIHYDROISOQUINOLIN-5-YL)-5-(TRIFLUOROMETHYL)-N-(2-(TRIFLUOROMETHYL)PYRIDIN-4-YL)-1H-PYRAZOLE-4-CARBOXAMIDE” (Janssen Pharmaceutica NV, priority 2021, published 2024)
